Source: ChEMBL document CHEMBL4308877, “Thiazole, thio and semicarbazone derivatives against tropical infective diseases: Chagas disease, human African trypanosomiasis (HAT), leishmaniasis, and malaria” (Eur J Med Chem, 2019)
≈ marks a conversion by molar mass, not a printed value. Values belong to the compound of their own block, whether it stands above or below them.

Columns and labels:
[1] = Selectivity index, ratio of cytotoxic activity for macrophages (unknown origin) to IC50 for amastigote stage of Leishmania infantum MHOM/BR/BH 46; type: toxicity; conditions: read-out: Ratio CC50/IC50
[2] = Selectivity index, ratio of CC50 for mouse J774 cells to IC50 for promastigote stage of Leishmania infantum MHOM/BR/BH 46; type: toxicity; conditions: read-out: Ratio CC50/IC50
Leishmania infantum [3] = assay: Anti-parasitic activity against amastigote stage of Leishmania infantum MHOM/BR/BH 46 infected in macrophages after 24 hrs by Giemsa staining based method; type: functional, organism-based; conditions: MHOM/BR/BH 46, 24 h
Leishmania infantum [4] = assay: Anti-parasitic activity against promastigote stage of Leishmania infantum MHOM/BR/BH 46 after 72 hrs by Neubauer chamber method; type: functional, organism-based; conditions: MHOM/BR/BH 46, 72 h
[5] = molecular target: Cruzipain (Trypanosoma cruzi) (UniProt P25779); assay: Inhibition of recombinant Trypanosoma cruzi CL epimastigotes form cruzain at 100 uM using Z-FR-AMC as substrate preincubated for 10 mins followed by substrate addition measured after 5 mins by fluorimetric analysis relative to control
Chain of Cruzipain (Trypanosoma cruzi) (P25779 123-467 limits assumed): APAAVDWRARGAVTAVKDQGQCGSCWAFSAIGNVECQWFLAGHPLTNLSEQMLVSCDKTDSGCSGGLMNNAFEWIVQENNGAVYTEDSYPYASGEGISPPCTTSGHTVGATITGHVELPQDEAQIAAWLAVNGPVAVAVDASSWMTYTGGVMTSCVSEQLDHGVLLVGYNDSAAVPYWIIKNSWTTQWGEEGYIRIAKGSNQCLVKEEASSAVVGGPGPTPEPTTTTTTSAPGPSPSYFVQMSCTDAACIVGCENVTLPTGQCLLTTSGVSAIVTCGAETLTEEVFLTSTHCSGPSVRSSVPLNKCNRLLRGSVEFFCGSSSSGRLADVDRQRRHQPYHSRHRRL

[6] = Selectivity index, ratio of EC50 for human U-937 cells to IC50 for amastigote stage of EGFP-fused Leishmania panamensis MHOM/CO/87/UA140; type: toxicity; conditions: read-out: Selectivity Index
Leishmania panamensis = assay: Anti-parasitic activity against amastigote stage of EGFP-fused Leishmania panamensis MHOM/CO/87/UA140 infected in human U-937 cells after 72 hrs by flow cytometric analysis; type: functional, organism-based; conditions: MHOM/CO/87/UA140, U-937, 72 h
Trypanosoma brucei [7] = assay: Anti-parasitic activity against wild type Trypanosoma brucei; type: functional, organism-based
Trypanosoma brucei [8] = assay: Anti-parasitic activity against type 1 nitroreductase over-expressing Trypanosoma brucei; type: functional, organism-based
[9] = Selectivity index, ratio of IC50 for human THP1 cells to IC50 for Trypanosoma brucei overexpressing the type 1 nitroreductase; type: toxicity; conditions: read-out: Ratio IC50
[10] = Selectivity index, ratio of IC50 for human SK-N-SH cells to IC50 for wild type Trypanosoma brucei; type: toxicity; conditions: read-out: Ratio IC50
Trypanosoma cruzi [11] = assay: Anti-parasitic activity against epimastigote stage of Trypanosoma cruzi Tulahuen 2 measured at day 5; type: functional, organism-based; conditions: Tulahuen 2, 120 h
Trypanosoma cruzi [12] = assay: Anti-parasitic activity against amastigote stage of Trypanosoma cruzi Sylvio X-10 infected in African green monkey Vero cells after 72 hrs by Giemsa-staining based assay; type: functional, organism-based; conditions: Sylvio X-10, Vero
Trypanosoma cruzi [13] = assay: Anti-parasitic activity against trypomastigote stage of Trypanosoma cruzi Y infected in monkey LLC-MK2 cells after 24 hrs; type: functional, organism-based; conditions: LLC-MK2, 24 h
Trypanosoma cruzi [14] = assay: Anti-parasitic activity against amastigote stage of Trypanosoma cruzi Y infected in monkey LLC-MK2 cells after 96 hrs; type: functional, organism-based; conditions: LLC-MK2, 96 h
[15] = tested on: Trypanosoma brucei brucei; assay: Anti-parasitic activity against Trypanosoma brucei brucei AnTat1.1E; type: functional, organism-based
[16] = Selectivity index, ratio of IC50 for HEK293T cells to IC50 for Trypanosoma brucei brucei AnTat1.1E; type: toxicity; conditions: human
[17] = Selectivity index, ratio of cytotoxic activity for monkey LLC-MK2 cells to IC50 for trypomastigote stage of Trypanosoma cruzi Y; type: toxicity
Leishmania amazonensis [18] = assay: Anti-parasitic activity against promastigote stage of Leishmania amazonensis WHOM/00 LTB 0016 after 96 hrs; type: functional, organism-based; conditions: WHOM/00 LTB 0016, 96 h
[19] = Selectivity index, ratio of CC50 for mouse macrophages to IC50 for promastigote stage of Leishmania amazonensis WHOM/00 LTB 0016; type: toxicity; conditions: read-out: Ratio CC50/IC50
Leishmania amazonensis [20] = assay: Anti-parasitic activity against amastigote stage of Leishmania amazonensis WHOM/00 LTB 0016 infected in mouse macrophages after 24 hrs; type: functional, organism-based; conditions: WHOM/00 LTB 0016, 24 h
[21] = Selectivity index, ratio of CC50 for mouse macrophages to IC50 for amastigote stage of Leishmania amazonensis WHOM/00 LTB 0016; type: toxicity; conditions: read-out: Ratio CC50/IC50
A549 = assay: Cytotoxicity against human A549 cells assessed as reduction in cell viability after 24 hrs by MTT assay; type: functional, cell-based; conditions: A549, 24 h
C6 = assay: Cytotoxicity against rat C6 cells assessed as reduction in cell viability after 24 hrs by MTT assay; type: functional, cell-based; conditions: C6, 24 h

EC50 (Leishmania panamensis): 5.4 µM
Compound: NC(=O)N/N=C1\CC(c2ccccc2)Sc2ccccc21 (stereo not given)
selectivity ratio [6]: 18.6

IC50 (Leishmania infantum [3]): 5.2 µM
IC50 (Leishmania infantum [4]): 9.8 µM
Compound: O=C1c2ccccc2C(=O)N1Nc1nc(-c2ccc3ccccc3c2)cs1
selectivity ratio [1]: 24
selectivity ratio [2]: 17.7

IC50 [15]: 0.937 µM
Compound: CCOC(=O)c1ccc(-n2sc3ccccc3c2=O)cc1
selectivity ratio [16]: > 267

IC50 (Trypanosoma cruzi [13]): 10.8 µM
Compound: CCC1S/C(=N/N=C(/COc2ccccc2)c2ccc(-c3ccccc3)cc2)NC1=O (stereo not given)
selectivity ratio [17]: > 21.6

IC50 (Leishmania amazonensis [18]): 6 µM
IC50 (Leishmania amazonensis [20]): 33 µM
Compound: NC(=S)N/N=C(/COc1ccccc1)c1ccccc1
selectivity ratio [19]: 71.1
selectivity ratio [21]: 4.94

IC50 (Trypanosoma cruzi [13]): 4 µM
Compound: CCC1S/C(=N/N=C(/COc2ccccc2)c2ccc(Br)cc2)NC1=O (stereo not given)
selectivity ratio [17]: > 57.9

IC50 (Leishmania amazonensis [18]): 4.9 µM
IC50 (Leishmania amazonensis [20]): 40.3 µM
Compound: NC(=S)N/N=C(/COc1ccccc1)c1ccc(Cl)cc1
selectivity ratio [19]: 22.8
selectivity ratio [21]: 2.77

More lines, now with the values behind:

Compound: O=C1c2ccccc2C(=O)N1Nc1nc(-c2ccc(Cl)cc2Cl)cs1
selectivity ratio [1]: 12
selectivity ratio [2]: 12.7
IC50 (Leishmania infantum [3]): 22.3 µM
IC50 (Leishmania infantum [4]): 13.9 µM

Compound: CC(C)c1ccc(/C=N/NC(N)=S)cc1
inhibition [5]: 70%

Compound: CCCCC(=O)Nc1ncc([N+](=O)[O-])s1
IC50 (Trypanosoma brucei [7]): 4.32 µM
IC50 (Trypanosoma brucei [8]): 0.57 µM
selectivity ratio [9]: > 175
selectivity ratio [10]: > 23

Compound: C=CCn1c(C(=O)N2CCN(C/C=C/c3ccccc3)CC2)cs\c1=N/N=C/C=C/c1ccco1
IC50 (Trypanosoma cruzi [11]): 3.1 µM
EC50 (Trypanosoma cruzi [12]): 0.7 µM

Compound: N/C(S)=N/N=C/c1ccc([N+](=O)[O-])cc1
EC50 (Trypanosoma cruzi [13]): 1.43 µM
IC50 (Trypanosoma cruzi [14]): 3.23 µM

Compound: Cc1c(CO)c(CO)c2n1[C@@H](c1ccccc1)SC2
IC50 (A549): 12 µg/mL (≈ 43.6 µM)
IC50 (C6): 3.83 µg/mL (≈ 13.9 µM)
